These results are taken from ChEMBL document CHEMBL3045878, “Effect of Insect Hormone Related Compounds on the Growth of Insect Cells” (1997).

What all share (assay type): functional
Assay [1] is described as follows: Juvenile hormone mimic activity in Spodoptera frugiperda (fall armyworm) Sf21 cells assessed as cell number at 3.7 x 10 '-7 M after 5 days by trypan blue exclusion assay.
Assay [2] can be described thus: Juvenile hormone mimic activity in Spodoptera frugiperda (fall armyworm) Sf21 cells assessed as cell number at 3.7 x 10 '-10 M after 5 days by trypan blue exclusion assay.
The nature of assay [3]: Juvenile hormone mimic activity in Spodoptera frugiperda (fall armyworm) Sf21 cells assessed as cell number at 3.7 x 10 '-11 M after 5 days by trypan blue exclusion assay.
The nature of assay [4]: Juvenile hormone mimic activity in Spodoptera frugiperda (fall armyworm) Sf21 cells assessed as cell number at 3.7 x 10 '-8 M after 5 days by trypan blue exclusion assay.
A short description of assay [5]: Juvenile hormone mimic activity in Spodoptera frugiperda (fall armyworm) Sf21 cells assessed as cell number at 3.7 x 10 '-9 M after 5 days by trypan blue exclusion assay.
Assay [6] can be described thus: Juvenile hormone mimic activity in Spodoptera frugiperda (fall armyworm) Sf21 cells assessed as cell number at 3.7 x 10 '-12 M after 5 days by trypan blue exclusion assay.

For `CC(C)=CCC/C(C)=C/c1cncn1Cc1ccccc1`, the Activity in assay [1] is given as 3.3%; in assay [2], 5.5%; in assay [3], 5.5%; in assay [4], 4.2%; in assay [5] it was 4.9%.
Take `COC(C)(C)CCC[C@H](C)C/C=C/C(C)=C/C(=O)OC(C)C` [METHOPRENE]: the Activity in assay [1] is 6%; in assay [6], 6.4%; in assay [2], 6.9%; in assay [3] it was 6.7%; in assay [4] it was 6%; in assay [5], 6.5%.
In the case of `CCc1ccc(C(=O)NN(C(=O)c2cc(C)cc(C)c2)C(C)(C)C)cc1` [TEBUFENOZIDE], the Activity in assay [1] is on record as 4.3%; in assay [2], 5.6%; in assay [3], 5.4%; in assay [4], 5.1%; in assay [5], 5.7%.
